Molecules are shown by their SMILES. Like-named read-outs stand apart in the source and are kept apart here.

The target in one test is CDK5/p35 (Homo sapiens, UniProt Q00535). In words: Z'-LYTE SelectScreen biochemical kinase assay CDK5/p35. The source says: (§1) Thermo Fisher Scientific SelectScreen™ Biochemical Kinase Profiling Service Z′-LYTE™ Screening Protocol and Assay Conditions Assay Theory
(§2) The […] biochemical assay employs a fluorescence-based, coupled-enzyme format and is based on the differential sensitivity of phosphorylated and non-phosphorylated peptides to proteolytic cleavage. The peptide substrate is labeled with two fluorophores—one at each end—that make up a FRET pair. In the primary reaction, the kinase transfers the gamma-phosphate of ATP to a single tyrosine, serine or threonine residue in a synthetic FRET-peptide. In the secondary reaction, a site-specific protease recognizes and cleaves non-phosphorylated FRET-peptides. Phosphorylation of FRET-peptides suppresses cleavage by the Development Reagent. Cleavage disrupts FRET between the donor (i.e., coumarin) and acceptor (i.e., fluorescein) fluorophores on the FRET-peptide, whereas uncleaved, phosphorylated FRET-peptides maintain FRET. A ratiometric method, which calculates the ratio (Emission Ratio=Coumarin emission (445 nm)/Fluorescein emission (520 nm)) of donor emission to acceptor emission after excitation of the donor fluorophore at 400 nm, is used to quantitate reaction progress, as shown in the equation below. A significant benefit of this ratiometric method for quantitating reaction progress is the elimination of well-to-well variations in FRET-peptide concentration and signal intensities. As a result, the assay yields very high Z′-factor values (>0.7) at a low percent phosphorylation. Both cleaved and uncleaved FRET-peptides contribute to the fluorescence signals and therefore to the Emission Ratio. The extent of phosphorylation of the FRET-peptide can be calculated from the Emission Ratio. The Emission Ratio will remain low if the FRET-peptide is phosphorylated (i.e., no kinase inhibition) and will be high if the FRET-peptide is non-phosphorylated (i.e., kinase inhibition).
(§3) The Test Compounds are screened in 1% DMSO (final) in the well. For 10 point titrations, 3-fold serial dilutions are conducted from the starting concentration of the customer's choosing.
(§4) All Peptide/Kinase Mixtures are diluted to a 2× working concentration in the appropriate Kinase Buffer (see section Kinase Specific Assay Conditions for a complete description).
(§5) All ATP Solutions are diluted to a 4× working concentration in Kinase Buffer (50 mM HEPES pH 7.5, 0.01% BRIJ-35, 10 mM MgCl2, 1 mM EGTA). ATP Km apparent is previously determined using a Z″-LYTE assay.
(§6) The Development Reagent is diluted in Development Buffer (see section Kinase-Specific Assay Conditions—Direct and Cascade for a complete description).
(§7) Bar-coded Corning, low volume NBS, black 384-well plate (Corning Cat. #4514) • 1. 100 nL—100× Test Compound in 100% DMSO • 2. 2.4 μL—Kinase buffer • 3. 5 μL—2× Peptide/Kinase Mixture • 4. 2.5 μL—4×ATP Solution • 5. 30—second plate shake • 6. 60—minute Kinase Reaction incubation at room temperature • 7. 5 μL—Development Reagent Solution • 8. 30—second plate shake • 9. 60—minute Development Reaction incubation at room temperature • 10. Read on fluorescence plate reader and analyze the data Z′-LYTE Assay Controls
(§8) SelectScreen Kinase Profiling Service uses XLfit from IDBS. The dose response curve is curve fit to model number 205 (sigmoidal dose-response model).
The 2×CDK5/p35/Ser/Thr 12 mixture is prepared in 50 mM HEPES pH 7.5, 0.01% BRIJ-35, 10 mM MgCl2, 1 mM EGTA. The final 10 μL Kinase Reaction consists of 0.14-1.3 ng CDK5/p35 and 2 μM Ser/Thr 12 in 50 mM HEPES pH 7.5, 0.01% BRIJ-35, 10 mM MgCl2, 1 mM EGTA. After the 1 hour Kinase Reaction incubation, 5 μL of a 1:4096 dilution of Development Reagent A is added.

Another test has as its target KDR (VEGFR2) (Homo sapiens, UniProt P35968). As to the kind of experiment: Z'-LYTE SelectScreen biochemical kinase assay KDR (VEGFR2).
Excerpt: as §1, §2, §3, §4, §5, §6, §7, §8
The 2×KDR (VEGFR2)/Tyr 01 mixture is prepared in 50 mM HEPES pH 7.5, 0.01% BRIJ-35, 10 mM MgCl2, 1 mM EGTA. The final 10 μL Kinase Reaction consists of 1-30 ng KDR (VEGFR2) and 2 μM Tyr 01 in 50 mM HEPES pH 7.5, 0.01% BRIJ-35, 10 mM MgCl2, 1 mM EGTA. After the 1 hour Kinase Reaction incubation, 5 μL of a 1:256 dilution of Development Reagent B is added.

The target in the next test is PTK2 (FAK) (Homo sapiens, UniProt Q05397). In words: Z'-LYTE SelectScreen biochemical kinase assay PTK2 (FAK).
Sequence of PTK2 (FAK) (Q05397 whole entry): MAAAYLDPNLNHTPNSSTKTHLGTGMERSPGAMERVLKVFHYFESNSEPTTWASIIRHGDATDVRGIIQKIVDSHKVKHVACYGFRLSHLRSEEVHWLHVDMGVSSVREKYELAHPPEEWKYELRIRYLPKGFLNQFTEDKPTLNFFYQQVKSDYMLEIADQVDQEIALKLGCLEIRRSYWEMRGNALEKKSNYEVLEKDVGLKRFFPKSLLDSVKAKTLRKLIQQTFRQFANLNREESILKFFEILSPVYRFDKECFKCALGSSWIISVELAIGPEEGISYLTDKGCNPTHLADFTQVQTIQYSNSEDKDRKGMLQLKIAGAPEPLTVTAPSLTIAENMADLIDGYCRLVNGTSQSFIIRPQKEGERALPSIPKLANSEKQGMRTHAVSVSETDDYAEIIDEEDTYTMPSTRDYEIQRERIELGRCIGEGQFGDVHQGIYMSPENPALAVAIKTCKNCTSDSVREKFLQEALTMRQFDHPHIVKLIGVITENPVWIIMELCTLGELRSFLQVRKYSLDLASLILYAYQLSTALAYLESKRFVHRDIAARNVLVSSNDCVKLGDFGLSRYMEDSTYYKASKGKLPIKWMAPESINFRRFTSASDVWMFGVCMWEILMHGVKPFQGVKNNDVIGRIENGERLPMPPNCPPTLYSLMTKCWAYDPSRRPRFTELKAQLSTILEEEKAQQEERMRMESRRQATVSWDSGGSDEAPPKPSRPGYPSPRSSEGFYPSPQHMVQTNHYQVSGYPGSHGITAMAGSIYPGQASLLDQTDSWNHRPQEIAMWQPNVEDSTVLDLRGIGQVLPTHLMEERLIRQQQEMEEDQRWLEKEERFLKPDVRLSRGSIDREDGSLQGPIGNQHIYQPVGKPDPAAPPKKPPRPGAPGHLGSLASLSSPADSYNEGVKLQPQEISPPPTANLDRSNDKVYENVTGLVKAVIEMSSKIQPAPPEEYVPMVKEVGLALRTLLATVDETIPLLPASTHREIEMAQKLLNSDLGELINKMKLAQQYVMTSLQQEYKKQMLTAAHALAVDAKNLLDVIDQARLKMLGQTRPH
Excerpt: as §1, §2, §3, §4, §5, §6, §7, §8
The 2×PTK2 (FAK)/Tyr 07 mixture is prepared in 50 mM HEPES pH 7.5, 0.01% BRIJ-35, 10 mM MgCl2, 1 mM EGTA. The final 10 μL Kinase Reaction consists of 12.5-100 ng PTK2 (FAK) and 2 μM Tyr 07 in 50 mM HEPES pH 7.5, 0.01% BRIJ-35, 10 mM MgCl2, 1 mM EGTA. After the 1 hour Kinase Reaction incubation, 5 μL of a 1:16 dilution of Development Reagent B is added.

In another test the target is CSF1R (FMS) (Homo sapiens, UniProt P07333). As to the kind of experiment: Z'-LYTE SelectScreen biochemical kinase assay CSF1R (FMS).
Sequence of CSF1R (FMS) (P07333 20-972): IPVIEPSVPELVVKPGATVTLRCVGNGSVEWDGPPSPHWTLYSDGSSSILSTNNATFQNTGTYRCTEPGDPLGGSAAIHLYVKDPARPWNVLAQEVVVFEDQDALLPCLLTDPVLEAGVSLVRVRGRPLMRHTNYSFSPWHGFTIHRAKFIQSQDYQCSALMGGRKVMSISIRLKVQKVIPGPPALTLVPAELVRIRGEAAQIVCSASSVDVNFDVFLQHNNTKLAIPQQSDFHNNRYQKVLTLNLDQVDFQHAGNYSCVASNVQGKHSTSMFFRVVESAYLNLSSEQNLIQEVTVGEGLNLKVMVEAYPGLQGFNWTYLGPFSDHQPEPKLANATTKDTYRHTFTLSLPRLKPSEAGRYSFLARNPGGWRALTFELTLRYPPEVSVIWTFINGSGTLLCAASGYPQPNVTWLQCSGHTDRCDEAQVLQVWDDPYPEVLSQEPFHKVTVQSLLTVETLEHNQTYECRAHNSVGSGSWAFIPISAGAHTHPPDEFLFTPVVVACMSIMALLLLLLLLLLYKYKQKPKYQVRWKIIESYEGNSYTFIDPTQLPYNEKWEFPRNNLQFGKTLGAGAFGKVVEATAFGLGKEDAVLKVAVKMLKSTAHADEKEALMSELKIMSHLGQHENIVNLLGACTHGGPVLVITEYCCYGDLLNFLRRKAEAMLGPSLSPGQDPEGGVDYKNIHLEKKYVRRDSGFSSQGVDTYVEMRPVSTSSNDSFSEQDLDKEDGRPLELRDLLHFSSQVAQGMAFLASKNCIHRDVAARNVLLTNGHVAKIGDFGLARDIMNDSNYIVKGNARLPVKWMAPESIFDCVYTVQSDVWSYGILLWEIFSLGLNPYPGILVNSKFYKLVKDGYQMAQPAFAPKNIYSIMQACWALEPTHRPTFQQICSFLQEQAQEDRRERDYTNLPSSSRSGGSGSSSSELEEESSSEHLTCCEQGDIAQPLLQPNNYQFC
Excerpt: as §1, §2, §3, §4, §5, §6, §7, §8
The 2×CSF1R (FMS)/Tyr 01 mixture is prepared in 50 mM HEPES pH 7.5, 0.01% BRIJ-35, 10 mM MgCl2, 1 mM EGTA. The final 10 μL Kinase Reaction consists of 0.2-40 ng CSF1R (FMS) and 2 μM Tyr 01 in 50 mM HEPES pH 7.5, 0.01% BRIJ-35, 10 mM MgCl2, 1 mM EGTA. After the 1 hour Kinase Reaction incubation, 5 μL of a 1:256 dilution of Development Reagent B is added.

Where [1] appears, read: 10 μmolar compound concentration, ATP at Km app, read-out: CDK5/p35 inhibition.
Setting [2] is: read-out: % Inhibition mean CDK5/p35.
Where [3] appears, read: 10 μmolar compound concentration, ATP at Km app, read-out: KDR (VEGFR2) inhibition.
The mark [4] stands for this setting: read-out: % Inhibition mean KDR (VEGFR2).
Where [5] appears, read: 10 μmolar compound concentration, ATP at Km app, read-out: PTK2 (FAK) inhibition.
The mark [6] stands for this setting: read-out: % Inhibition mean PTK2 (FAK).
[7] abbreviates: 10 μmolar compound concentration, ATP at Km app, read-out: CSF1R (FMS) inhibition.
[8] abbreviates: read-out: % Inhibition mean CSF1R (FMS).

Sequence of KDR (VEGFR2) (P35968 20-1356): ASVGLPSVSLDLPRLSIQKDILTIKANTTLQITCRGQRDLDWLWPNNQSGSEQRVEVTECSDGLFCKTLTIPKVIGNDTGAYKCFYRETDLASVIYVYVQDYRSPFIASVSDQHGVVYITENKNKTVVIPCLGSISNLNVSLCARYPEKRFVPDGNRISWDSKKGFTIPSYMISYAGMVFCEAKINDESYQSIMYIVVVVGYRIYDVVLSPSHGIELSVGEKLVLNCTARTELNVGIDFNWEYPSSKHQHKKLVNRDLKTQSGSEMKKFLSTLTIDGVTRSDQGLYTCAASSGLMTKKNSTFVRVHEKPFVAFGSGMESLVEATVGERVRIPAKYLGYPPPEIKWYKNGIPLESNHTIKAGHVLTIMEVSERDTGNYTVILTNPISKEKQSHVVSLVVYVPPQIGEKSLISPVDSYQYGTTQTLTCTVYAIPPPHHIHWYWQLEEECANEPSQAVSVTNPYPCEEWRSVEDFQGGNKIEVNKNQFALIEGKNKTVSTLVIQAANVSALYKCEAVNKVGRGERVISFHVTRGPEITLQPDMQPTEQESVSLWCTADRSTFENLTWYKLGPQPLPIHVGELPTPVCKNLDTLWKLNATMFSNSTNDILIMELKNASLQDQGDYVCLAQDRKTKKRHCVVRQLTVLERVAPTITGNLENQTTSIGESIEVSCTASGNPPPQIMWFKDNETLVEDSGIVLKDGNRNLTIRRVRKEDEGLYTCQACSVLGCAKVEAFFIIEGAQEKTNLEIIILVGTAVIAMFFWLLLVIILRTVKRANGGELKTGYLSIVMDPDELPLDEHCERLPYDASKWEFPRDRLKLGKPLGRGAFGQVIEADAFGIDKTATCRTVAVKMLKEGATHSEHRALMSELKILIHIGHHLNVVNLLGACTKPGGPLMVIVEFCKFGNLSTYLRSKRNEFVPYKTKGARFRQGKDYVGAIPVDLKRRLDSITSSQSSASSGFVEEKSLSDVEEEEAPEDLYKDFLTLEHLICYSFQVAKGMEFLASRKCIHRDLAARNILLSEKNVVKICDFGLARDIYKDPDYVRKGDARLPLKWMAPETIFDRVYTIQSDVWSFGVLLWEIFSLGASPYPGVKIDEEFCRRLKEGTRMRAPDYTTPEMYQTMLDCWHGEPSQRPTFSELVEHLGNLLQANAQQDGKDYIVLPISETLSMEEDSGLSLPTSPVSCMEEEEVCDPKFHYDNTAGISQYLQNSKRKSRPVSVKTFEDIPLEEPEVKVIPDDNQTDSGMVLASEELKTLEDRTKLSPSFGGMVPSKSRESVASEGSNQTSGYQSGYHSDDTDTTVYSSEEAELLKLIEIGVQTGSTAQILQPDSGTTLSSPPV
Sequence of CDK5/p35 (Q00535 whole entry): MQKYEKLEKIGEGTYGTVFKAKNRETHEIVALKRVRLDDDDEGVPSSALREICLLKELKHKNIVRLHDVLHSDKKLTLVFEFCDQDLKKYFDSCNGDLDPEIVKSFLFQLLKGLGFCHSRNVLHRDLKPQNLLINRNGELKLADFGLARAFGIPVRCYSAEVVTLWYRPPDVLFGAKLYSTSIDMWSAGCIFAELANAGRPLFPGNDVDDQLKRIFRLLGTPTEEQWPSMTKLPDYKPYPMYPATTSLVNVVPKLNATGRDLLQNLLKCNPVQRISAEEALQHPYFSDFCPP
Sequence of CDK5/p35 (Q15078 whole entry partner): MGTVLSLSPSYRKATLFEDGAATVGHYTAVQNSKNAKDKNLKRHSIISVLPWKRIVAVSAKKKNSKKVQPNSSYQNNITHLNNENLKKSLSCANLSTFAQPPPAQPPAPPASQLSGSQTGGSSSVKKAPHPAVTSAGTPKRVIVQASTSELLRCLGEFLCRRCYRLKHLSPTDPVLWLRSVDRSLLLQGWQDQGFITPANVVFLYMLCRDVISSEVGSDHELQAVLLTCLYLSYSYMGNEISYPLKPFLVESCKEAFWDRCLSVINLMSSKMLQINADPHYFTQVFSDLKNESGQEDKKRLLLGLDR

For the compound `CCn1ncc2c1CC[C@H](Nc1nc3c(-c4ccc(F)c(Cl)c4)cccn3n1)C2` [Example S-61, (S)-[8-(3-Chloro-4-fluoro-phenyl)-[1,2,4]triazolo[1,5-a]pyridine-2-yl]-(1-ethyl-4,5,6,7-tetrahydro-1H-indazol-5-yl)-amine], the inhibition at 10 µM on CDK5/p35 (setting [1]) was less than 40%; at CDK5/p35 (setting [2]), 10%; on KDR (VEGFR2) (setting [3]), less than 40%; at KDR (VEGFR2) (setting [4]) it was -15%; at PTK2 (FAK) (setting [5]), less than 40%; on PTK2 (FAK) (setting [6]) it was 23%. Besides, the inhibition at 10 µM on CSF1R (FMS) (setting [7]) is less than 40%; at CSF1R (FMS) (setting [8]), 18%.

Turning to `CCn1ncc2c1CC[C@@H](Nc1nc3c(-c4ccc(F)cc4C)cccn3n1)C2` [Example R-42, (R)-(1-Ethyl-4,5,6,7-tetrahydro-1H-indazol-5-yl)-[8-(4-fluoro-2-methyl-phenyl)-[1,2,4]triazolo[1,5-a]pyridine-2-yl]-amine], the inhibition at 10 µM on CDK5/p35 (setting [1]) was less than 40%; at CDK5/p35 (setting [2]) it was 39%; on KDR (VEGFR2) (setting [3]), less than 40%; on KDR (VEGFR2) (setting [4]), 10%; on PTK2 (FAK) (setting [5]), less than 40%; on PTK2 (FAK) (setting [6]) it was 28%. Also, the inhibition at 10 µM is less than 40% on CSF1R (FMS) (setting [7]) and 31% on CSF1R (FMS) (setting [8]).

As for `CCc1nn(C)c2c1CCC(Nc1nc3c(-c4ccc(F)cc4C)cccn3n1)C2` (stereo not drawn) [Example 54, (3-Ethyl-1-methyl-4,5,6,7-tetrahydro-1H-indazol-6-yl)-[8-(4-fluoro-2-methyl-phenyl)-[1,2,4]triazolo[1,5-a]pyridine-2-yl]-amine], the inhibition at 10 µM on CDK5/p35 (setting [1]) was less than 40%; at CDK5/p35 (setting [2]), 18%; at KDR (VEGFR2) (setting [3]), less than 40%; on KDR (VEGFR2) (setting [4]) it was 5%; on PTK2 (FAK) (setting [5]), less than 40%; at PTK2 (FAK) (setting [6]) it was 14%. Further, the inhibition at 10 µM at CSF1R (FMS) (setting [7]) is less than 40%; on CSF1R (FMS) (setting [8]) it was 27%.

As to `Cc1cc(F)ccc1-c1cccn2nc(NC3CCc4cnn(C)c4C3)nc12` (stereo not drawn) [Example 40, [8-(4-Fluoro-2-methyl-phenyl)-[1,2,4]triazolo[1,5-a]pyridine-2-yl]-(1-methyl-4,5,6,7-tetrahydro-1H-indazol-6-yl)-amine], the inhibition at 10 µM was 40 to 80% on CDK5/p35 (setting [1]); 61% on CDK5/p35 (setting [2]); less than 40% at KDR (VEGFR2) (setting [3]); -10% on KDR (VEGFR2) (setting [4]); less than 40% on PTK2 (FAK) (setting [5]); 18% on PTK2 (FAK) (setting [6]). In addition, the results for the inhibition at 10 µM at CSF1R (FMS) (setting [7]) and at CSF1R (FMS) (setting [8]) were less than 40% and 25%, respectively.

As for `CCn1nc(Cl)c2c1CCC(Nc1nc3c(-c4ccc(F)cc4C)cccn3n1)C2` (stereo not drawn) [Example 48, (3-Chloro-1-ethyl-4,5,6,7-tetrahydro-1H-indazol-5-yl)-[8-(4-fluoro-2-methyl-phenyl)-[1,2,4]triazolo[1,5-a]pyridine-2-yl]-amine], the inhibition at 10 µM on CDK5/p35 (setting [1]) was less than 40%; on CDK5/p35 (setting [2]), 38%; on KDR (VEGFR2) (setting [3]), less than 40%; on KDR (VEGFR2) (setting [4]), 2%; at PTK2 (FAK) (setting [5]), less than 40%; on PTK2 (FAK) (setting [6]) it was 24%. In addition, the inhibition at 10 µM at CSF1R (FMS) (setting [7]) is less than 40%; on CSF1R (FMS) (setting [8]), 15%.

With `CCn1ncc2c1C(C)CC(Nc1nc3c(-c4cc(F)c(F)c(F)c4)cccn3n1)C2` (stereo not drawn) [Example 49, (1-Ethyl-7-methyl-4,5,6,7-tetrahydro-1H-indazol-5-yl)-[8-(3,4,5-trifluoro-phenyl)-[1,2,4]triazolo[1,5-a]pyridine-2-yl]-amine], the inhibition at 10 µM is less than 40% on CDK5/p35 (setting [1]); 7% at CDK5/p35 (setting [2]); less than 40% on KDR (VEGFR2) (setting [3]); 8% at KDR (VEGFR2) (setting [4]); less than 40% at PTK2 (FAK) (setting [5]); 32% at PTK2 (FAK) (setting [6]). For the same compound, the inhibition at 10 µM was less than 40% at CSF1R (FMS) (setting [7]) and 34% on CSF1R (FMS) (setting [8]).

In the case of `Cc1cc(F)ccc1-c1cccn2nc(Nc3ccc4c(cnn4C)c3)nc12` [Example 9, [8-(4-fluoro-2-methyl-phenyl)-[1,2,4]triazolo[1,5-a]pyridine-2-yl]-(1-methyl-1H-indazol-5-yl)-amine], the inhibition at 10 µM at CDK5/p35 (setting [1]) was 40 to 80%; at CDK5/p35 (setting [2]), 42%; on KDR (VEGFR2) (setting [3]) it was less than 40%; at KDR (VEGFR2) (setting [4]), 30%; at PTK2 (FAK) (setting [5]) it was less than 40%; at PTK2 (FAK) (setting [6]), 7%. Also, the inhibition at 10 µM is greater than 80% at CSF1R (FMS) (setting [7]) and 82% on CSF1R (FMS) (setting [8]).

Regarding `Cc1cc(F)ccc1-c1cccn2nc(NC3CCc4c(cnn4CC(C)C)C3)nc12` (stereo not drawn) [Example 45, [8-(4-fluoro-2-methyl-phenyl)-[1,2,4]triazolo[1,5-a]pyridine-2-yl]-(1-isobutyl-4,5,6,7-tetrahydro-1H-indazol-5-yl)-amine], the inhibition at 10 µM on CDK5/p35 (setting [1]) is less than 40%; at CDK5/p35 (setting [2]), 8%; on KDR (VEGFR2) (setting [3]), less than 40%; at KDR (VEGFR2) (setting [4]) it was -10%; on PTK2 (FAK) (setting [5]), less than 40%; at PTK2 (FAK) (setting [6]), 20%. Besides, the inhibition at 10 µM at CSF1R (FMS) (setting [7]) is 40 to 80%; at CSF1R (FMS) (setting [8]), 40%.

`CCCn1ncc2c1CCC(Nc1nc3c(-c4ccc(F)cc4C)cccn3n1)C2` (stereo not drawn) [Example 43, [8-(4-fluoro-2-methyl-phenyl)-[1,2,4]triazolo[1,5-a]pyridine-2-yl]-(1-propyl-4,5,6,7-tetrahydro-1H-indazol-5-yl)-amine]: the inhibition at 10 µM at CDK5/p35 (setting [1]) is less than 40%; on CDK5/p35 (setting [2]) it was 36%; at KDR (VEGFR2) (setting [3]), less than 40%; at KDR (VEGFR2) (setting [4]), -3%; on PTK2 (FAK) (setting [5]) it was less than 40%; on PTK2 (FAK) (setting [6]) it was 19%. For the same compound, the inhibition at 10 µM is less than 40% on CSF1R (FMS) (setting [7]) and 28% on CSF1R (FMS) (setting [8]).

These data come from patent publication US11339161B2, “Triazolo pyridines as modulators of gamma-secretase” (Boehringer Ingelheim International GmbH, priority 2017, dated 2022).
